The text below walks through data of PMC8079065, “Design, synthesis and in vitro and in vivo biological evaluation of flurbiprofen amides as new fatty acid amide hydrolase/cyclooxygenase-2 dual inhibitory potential analgesic agents” (Journal of Enzyme Inhibition and Medicinal Chemistry, 2021).

Assay [1] deals with CD1 male mice. Nature of the assay: Carrageenan-induced mechanical hyperalgesia (Randall-Selitto). It is filed as in vivo. Particulars: 10 mg/kg ip, 5 min after carrageenan. As for the experimental part:
(§1) The behavioural experiments were performed on CD1 male mice (25–30 g Charles Rivers-Italy). They were housed in the animal care facility of the Department Experimental of Pharmacology, University of Naples. The animals were acclimated to their environment for 1 week and had ad libitum access to standard rodent chow pellets VRF1 (purchased from Special Diet Service-SDS). All behavioural tests were performed between 9:00 AM and 13:00 PM, and the animals were only used once. Procedures involving animals and their care were conducted in conformity with international and national law and policies (EU Directive 2010/63/EU for animal experiments). The procedures reported here were approved by the Institutional Committee on the Ethics of Animal Experiments (CSV) of the University of Naples “Federico II” and by the “Ministero della Salute”, protocol no. 2014–0084607. At the end of all experiments for all pain models, the animals were euthanized by CO2 overdose.
(§2) During this study, Flu-AM4 was administered systemically (intraperitoneally) and locally (intraplantar 100 microg/paw). […]
Paw withdrawal threshold (PWT) to mechanical pressure was measured with a Randall-Selitto Analgesy-Meter for mice (Ugo Basile, Italy). PWT was measured on the ispsilateral paw at 1, 2, 4, 6 and 48 h post carrageenan injection. […]

Assay [2] relates to CD1 male mice. The assay is described as follows: CCI neuropathic pain model, mechanical allodynia (von Frey test). It is filed as in vivo. Particulars: 1 h before test, day 7 and 14. As for the experimental part:
as §1
During this study, Flu-AM4 was administered systemically (intraperitoneally) and locally (intraplantar 100 microg/paw). For systemic administration, the compound was dissolved in PEG400 20% v/v, TWEEN 80 5% (v/v) and sterile saline and used at different doses (1–3–10 mg/kg). Vehicle group was only treated with PEG, TWEEN and sterile saline. For intraplantar administration Flu-AM4 was dissolved in PEG400 10% v/v, TWEEN 80 5% (v/v) and formalin 5% in sterile saline.
Neuropathic pain was induced by ligation of the sciatic nerve as described previously. […] At day 7 and 14 Mechanical Allodynia (von Frey test) and Mechanical hyperalgesia (Randall-Selitto test) were assessed. […]
To assess for changes in sensation or in the development of mechanical allodynia, sensitivity to tactile stimulation was measured using the Dynamic Plantar Aesthesiometer (DPA, Ugo Basile, Italy). […]

A further assay deals with T1, FAAH (Mus musculus, UniProt O08914).
T1 construct: rat or mouse brain homogenates as the enzyme source; from tissue; host or cells: mouse brain (minus cerebellum), male B6CBAF1/J, washed membrane homogenate
T1 sequence (O08914 1-579): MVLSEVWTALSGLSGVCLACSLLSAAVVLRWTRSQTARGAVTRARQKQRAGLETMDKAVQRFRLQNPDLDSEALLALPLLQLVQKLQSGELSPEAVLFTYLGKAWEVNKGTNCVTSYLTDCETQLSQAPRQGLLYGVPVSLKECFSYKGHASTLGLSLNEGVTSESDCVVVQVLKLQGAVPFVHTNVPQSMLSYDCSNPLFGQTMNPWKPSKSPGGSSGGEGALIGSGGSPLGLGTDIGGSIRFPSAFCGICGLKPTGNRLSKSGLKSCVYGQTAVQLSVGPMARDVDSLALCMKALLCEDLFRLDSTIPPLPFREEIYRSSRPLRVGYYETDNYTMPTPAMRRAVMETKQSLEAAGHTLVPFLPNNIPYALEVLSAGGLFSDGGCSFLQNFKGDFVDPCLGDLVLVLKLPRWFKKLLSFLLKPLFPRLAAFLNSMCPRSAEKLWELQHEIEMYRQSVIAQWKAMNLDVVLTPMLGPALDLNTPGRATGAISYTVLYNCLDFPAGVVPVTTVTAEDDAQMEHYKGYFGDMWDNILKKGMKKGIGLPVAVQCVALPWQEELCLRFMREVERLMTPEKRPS
Nature of the assay: FAAH assay: [3H]AEA hydrolysis by mouse brain homogenates. It is filed as biochemical. The following applies: 0.5 µM [3H]AEA.

In assay [3] the test system is CD1 male mice. Nature of the assay: Formalin-evoked hind-paw licking. It is filed as in vivo. The following applies: phase I and II. How it is done:
as §1, §2
Mice received intraplantar injections of formalin in saline (10%,vol/vol; 10 µl/paw). Paw licking was monitored by an observer blind to the experimental treatment for periods of 0–15 min (early phase) and 15–60 min (late phase) immediately after formalin administration. […]

A further assay has as its system NFκB-p65. Nature of the assay: NF-κB-p65 expression in the spinal cord of CCI-mice. It is filed as in vivo. The following applies: 10 mg/kg ip, 1 h before.

Usually IC50 stands for the concentration needed to halve the response being measured. Lower therefore signals higher potency. With `CC(C(=O)Nc1ncccc1Br)c1ccc(-c2ccccc2)c(F)c1` (centres unmarked) [Flu-AM4, N-(3-Bromopyridin-2-yl)-2-(2-fluoro-(1,1'-biphenyl)-4-yl)propanamide], the carrageenan-induced paw hyperalgesia entry with CD1 male mice [1] is reported as “reduce hyperalgesia seen 2 h after carrageenan”. In addition, the “CCI-induced mechanical allodynia (Von Frey)” value was “did not show any effect” in the assay with CD1 male mice [2] (1 mg/kg ip); “showed efficacy only at the 14-day time point in both tests” with CD1 male mice [2] (3 mg/kg ip); “increased paw withdrawal latency in both test and in all experimental time” with CD1 male mice [2] (10 mg/kg ip). At FAAH, this molecule returned a half-maximal inhibitory concentration (IC50) of 430 nM. In addition, in the assay with CD1 male mice [3] (100 µg intraplantar, co-administered with formalin 5%, p < 0.001), the “formalin-induced paw licking, local application” value is “reduced the paw licking time in both phases”. The “formalin-induced paw licking, systemic administration” value in the assay with CD1 male mice [3] (10 mg/kg ip, 1 h before formalin, p < 0.001 vs vehicle) is given as “reduce the behavioural responses in both phases”. The “NFκB-p65 expression in the spinal cord” value with NFκB-p65 was “significantly reduced this expression”.
